Patent US20240228536A1, “PEPTIDES FOR USE IN SKIN AND HAIR PIGMENTATION” (Follicum AB, priority 2020, published 2024)
Peptide text beside a SMILES is read from it.

Assays:
[1] = test system: Pigmented skin equivalents (SEs), Melanoderms Mel-300-A (donor) and Mel-300-C-2 (donor); experiment: Skin equivalent culture, photographic assessment of pigmentation; type: cell-based, human
Description: The skin equivalent surface area was 63.6 mm^2. Other equipment used included SMZ1000 Stereo Microscope (Nikon); UC30 Microscope Camera (Olympus); Phosphate-Buffered Saline (PBS); 6-well Tissue Culture Plates (Sarstedt); Image J software (https://imagej.nih.gov); Paintshop Photo Pro Software (Corel). The Melanoderms were prepared by carefully removing the agarose with sterile forceps and placing them in pre-warmed culture medium (37° C.) for an hour prior to treatment. The Melanoderms were then topically treated (without rubbing) with 25 μl of the various peptides, dissolved in dH2O at 10 mg/ml. […] The SEs were examined and removed from culture when skin darkening became visible. The pigmentation of the Melanoderms was macroscopically assessed by capturing high-resolution images using the Olympus microscope camera. […] They were then placed into a 6-well plate containing 1 ml PBS/well and images captured at ×8 magnification. The images were then processed using Image J & Paintshop Photo Pro software, to determine a quantifiable pixel area, which equated to the level of pigmentation present in the skin equivalent. The image brightness was normalised and the image gray-scaled using Paintshop Photo Pro, then Image J was used to threshold the image. The pigmentation was quantified by assessing total pixel area of pigmentation coverage in a fixed sample area. An ANOVA test (Dunnett's post-test) was used for the statistical analysis. Three different experiments were conducted. In the first, skin equivalents from both donors were included, and in experiment 2 and 3, only the […] donor was included. The SE of the […] donor from the first experiment received 5 treatments of 25 μl of peptide solution at 10 mg/ml; starting on the first day following receipt then on days 3, 5, 9 and 12. Peptides 1 (SEQ ID NO: 2), 3 (SEQ ID NO: 3) and 4 (SEQ ID NO: 4) were tested. The images were taken on Day 14. In experiment 2, peptide 3 and 4 were selected for testing to see if it had any efficacy in reducing melanin content or the distribution of melanin throughout the SE. This time, 5 SEs were used per treatment to improve statistical robustness. The experiment was continued for 20 days with treatments on days 0, 3, 7 and 12 and medium changes every other day. In experiment 3 a more highly pigmented SE ([…] donor melanocytes) was used and with an increased sample size with n=7 per treatment. […] Treatment was repeated on days 5, 9, 12 and 15 with medium changed every other day.

skin equivalents (SEs) = experiment: H&E and Warthin Starry staining of skin equivalents; type: cell-based, human; conditions: day 20
Text: Two skin equivalents (SEs) were used from one donor.
The analysis was achieved using the Warthin Starry assay using our recently published method (Joly-Tonetti et al 2016) and hematoxylin&eosin (H&E) staining.
The SEs were stained with Warthin Starry stain to visualise and quantify the melanin in sections. The SEs were removed from culture on day 20 and washed in PBS. They were then flash frozen in liquid nitrogen and mounted in OCT for sectioning. 10 μm sections were cut using a cryostat, the sections collected on slides and fixed in Acetone for 10 mins. The OCT was removed from the section by washing in acidulated water for 20 mins. The slides were then incubated in 1% silver nitrate solution for 1 hour at 43° C. […] The slides were stained for 2 mins then the staining was stopped by running the slides under hot tap water. Slides were then mounted using Histomount. Brightfield images were captured using a Nikon Eclipse microscope. Image analysis of the melanin density in sections was performed using Image J and densitometric thresholding. Results are presented in pixel intensity units. For the hematoxylin&eosin (H&E) staining, the SEs were flash frozen, sectioned and fixed as above. The slides were then washed in dH2O to remove the OCT for 20 mins. Haematoxylin was filtered using filter paper into a Coplin jar. Further Coplin jars were also prepared containing the following: Tap Water, Scott's Tap Water, 0.25% Eosin, 50% Ethanol, 70% Ethanol, 90% Ethanol, Ethanol and Histoclear. The slides were then placed into Haematoxylin for 2 mins, and then placed into tap water for 30 secs, Scott's Tap Water for 1 min & Eosin for 2 mins. The slides were then dehydrated through the Ethanol (1 min each) then placed into Histoclear for 2 mins and mounted using Histomount. Brightfield images were captured using a Nikon Eclipse microscope.

skin equivalents = experiment: Total melanin assay; type: cell-based, human; conditions: experiment 2, 10 mg/ml topical, day 20, n=4
Description: The skin equivalents used in this study was from the same donors as in Example 2. The determination of the total melanin content of the skin equivalent was determined using a total melanin assay.
The total melanin content of the SE was calculated by dissolving the SE in Soluene and reading the absorbance against a standard curve. The SEs were removed from culture on day 20 and washed with PBS. They were then transferred to a glass centrifuge tube and 500 μl Soluene added. The tubes were then covered with […]®, gently vortexed and placed on the Thermomixer at 50° C. for 1 hour. The tubes were then gently vortexed and 150 μl of the sample and synthetic melanin standards pipetted in triplicate into a glass 96 well plate. The absorbance was then measured at 490 nm on a Spectrophotometer. Results are presented in μg/ml against a standard curve. The change of melanin content is expressed as a percentage change versus vehicle control samples. An ANOVA (with Dunnett's post-test) was used for the statistical analysis.
Three experiments were conducted, and the same donors were used as in Example 2. The sample sizes were as follows: experiment 1 n=2, experiment 2 n=4 and experiment 3 n=7. Peptides 1 (SEQ ID NO: 2), 3 (SEQ ID NO: 3) and 4 (SEQ ID NO: 4) were tested.

[2] = Stability study, purity of FOL-005 by HPLC on storage; type: physicochemical
Description: FOL-005 lyophilized powder was dissolved in phosphate/citrate buffer of pHs 5, 6, 7 or 7.6. Samples of each formulation were analysed for purity using high-pressure liquid chromatography after up to 3 months of storage at 25° C. respectively. In addition, an essentially water-free formulation of FOL-005 was stored at 25° C. and samples were analysed for purity after up to 12 months of storage.
FOL-005/sucrose lyophilized powder was formulated to a suspension in dried or un-dried isopropyl myristate, paraffin oil/petrolatum, Sorbitan laurate and glyceryl behenate. Samples of each formulation were analysed for purity using high pressure liquid chromatography after up to 12 months of storage at 2-8, 25 and 30° C. respectively.

[3] = Solubility of FOL-005 in propylene glycol; type: physicochemical; conditions: in propylene glycol at room temperature

Row | Molecule | pigmentation of skin equivalents (photographic assessment) compared to vehicle control ([1]; experiment 1, donor, 5 topical treatments of 25 μl at 10 mg/ml in dH2O, images Day 14) | pigmentation of skin equivalents (photographic assessment) compared to vehicle control ([1]; experiment 2, donor, 10 mg/ml, 20 days, n=5) | pigmentation of skin equivalents (photographic assessment) compared to vehicle control ([1]; experiment 3, more highly pigmented SE (donor), 10 mg/ml, n=7) | melanin content and distribution in SE sections (Warthin Starry) (skin equivalents (SEs); one of the donors (FIG. 3A)) | melanin content and distribution in SE sections (Warthin Starry) (skin equivalents (SEs); second donor (FIG. 3B-D)) | total melanin content of skin equivalents vs vehicle control (skin equivalents) | degradation of FOL-005 ([2]; at various pH (buffers)) | degradation of FOL-005 ([2]; water free conditions) | solubility of FOL-005 [3] [µg/mL]
1 | Ala-Ala-His-Met (AAHM; (1)..(4) Peptide 3) | equivalent or slightly less pigmented than the vehicle control | slight decrease in pigmentation | little effect | reduction in melanin in the upper epidermal layers | did not appear to have any obvious effect | no difference |  |  | 
2 | CC[C@H](C)[C@H](NC(=O)[C@H](CC(=O)O)NC(=O)CNC(=O)[C@H](CC(=O)O)NC(=O)[C@H](Cc1ccc(O)cc1)NC(=O)[C@@H](NC(=O)[C@H](CC(=O)O)NC(=O)[C@@H](N)C(C)C)[C@@H](C)O)C(=O)N[C@@H](CO)C(=O)N[C@H](C(=O)N[C@H](C(=O)N[C@@H](Cc1ccc(O)cc1)C(=O)NCC(=O)N[C@@H](CC(C)C)C(=O)N[C@@H](CCCNC(=N)N)C(=O)O)C(C)C)C(C)C [FOL-005] (H-VDTYDGDISVVYGLR-OH; N-terminus and C-terminus assumed) |  |  |  |  |  |  | degraded | very limited | 160
